Measured values as given in EP4810052A2, “HCRHR2 SELECTIVE POLYPEPTIDES” (Gubra A/S, priority 2023, dated 2026).
Like-named read-outs stand apart in the source and are kept apart here. Marks after values point to notes of the source that are not given here. Starred links: 1 amine or outer side, 2 acyl side, 3 side chain; linkers in the order of their positions; H or OH if unused. Non-standard residues stand in square brackets, D forms with d. Residues, ends and D or L forms follow the SMILES beside them. Groups on a side chain read outwards from the residue. *: point of attachment. C20 diacid = O=C(O)CCCCCCCCCCCCCCCCCCC(=O)*; γGlu = O=C(O)[C@H](CCC(=O)[*:2])N[*:1]; NMeI = CC[C@H](C)[C@H](NC)C(=O)O; Nle = CCCC[C@H](N)C(=O)O; AEEA = NCCOCCOCC(=O)O; Aib = CC(C)(N)C(=O)O

Tests used:
[1] = molecular target: T1, hCRHR1 (Homo sapiens, UniProt P34998); experiment: HTRF cAMP assay, determination of hCRHR1 potency (peptide libraries 5 conc., purified peptides 11 conc.); format: cell-based
T1 sequence (P34998 24-415): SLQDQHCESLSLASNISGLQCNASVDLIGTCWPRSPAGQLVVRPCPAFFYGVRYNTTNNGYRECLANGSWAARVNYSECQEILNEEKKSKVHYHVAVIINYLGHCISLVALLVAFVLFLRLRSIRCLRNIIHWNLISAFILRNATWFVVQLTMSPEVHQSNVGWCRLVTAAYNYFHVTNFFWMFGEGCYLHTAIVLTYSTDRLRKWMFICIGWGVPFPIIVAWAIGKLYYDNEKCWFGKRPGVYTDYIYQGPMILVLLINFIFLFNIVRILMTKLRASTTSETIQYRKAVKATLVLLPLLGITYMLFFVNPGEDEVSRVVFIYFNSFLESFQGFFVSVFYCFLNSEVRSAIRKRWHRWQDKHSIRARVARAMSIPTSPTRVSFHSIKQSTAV
Procedure, shortened: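 CHO-K1 cells stably expressing human CRHR1, thawed from frozen stocks just before use, were stimulated in suspension with agonist peptides. cAMP was measured by HTRF competitive immunoassay (cryptate anti-cAMP antibody vs d2-cAMP).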

[2] = Effect on acute food intake in mice; format: in vivo; conditions: single subcutaneous dose
Method: Male NMRI mice were obtained from JanVier (JanVier Labs, France) at 5 weeks of age. The animals were group-housed 4 mice pr. cage under a 12/12 h dark-light cycle, light off at 1 PM. Room temperature was controlled to 22°C ± 1°C, with 60 % ± 20% humidity. Animals had ad libitum access to regular rodent chow (Altromin 1324, Brogaarden, Denmark) and tap water.
Animals were transferred 5-7 days before the start of the study to a real-time food intake monitoring system, HM-2 system (MBRose, Denmark) to allow acclimatization to experimental conditions. As the animals were uniquely identified with microchips, each individual animal was identified by its microchip upon entry and exit from the food channel. Randomization of the mice for each study group (n=7-8) was based on body weight measured the day before the start of the study. A vehicle-treated group was included in each experiment. Six hours before the start of the dark phase, animals were fasted. One hour before the dark phase, animals were dosed once subcutaneously with test peptide. Food intake was reported hourly for a period of 72 hours. The percentage of food intake reduction was normalized to average food intake from the vehicle group. Statistical significance was evaluated using One-way analysis of variance with Dunnett's multiple comparison test. P < 0.05 was considered statistically significant.
Selected compounds were tested according to the general procedure on acute food intake in mice to determine the effect of a single subcutaneous dose on food intake in mice over 3 days.

[3] = molecular target: T2, hCRHR2 (Homo sapiens, UniProt Q13324); experiment: HTRF cAMP assay, determination of hCRHR2 potency (peptide libraries 5 conc., purified peptides 11 conc.); format: cell-based
T2 sequence (Q13324 1-411): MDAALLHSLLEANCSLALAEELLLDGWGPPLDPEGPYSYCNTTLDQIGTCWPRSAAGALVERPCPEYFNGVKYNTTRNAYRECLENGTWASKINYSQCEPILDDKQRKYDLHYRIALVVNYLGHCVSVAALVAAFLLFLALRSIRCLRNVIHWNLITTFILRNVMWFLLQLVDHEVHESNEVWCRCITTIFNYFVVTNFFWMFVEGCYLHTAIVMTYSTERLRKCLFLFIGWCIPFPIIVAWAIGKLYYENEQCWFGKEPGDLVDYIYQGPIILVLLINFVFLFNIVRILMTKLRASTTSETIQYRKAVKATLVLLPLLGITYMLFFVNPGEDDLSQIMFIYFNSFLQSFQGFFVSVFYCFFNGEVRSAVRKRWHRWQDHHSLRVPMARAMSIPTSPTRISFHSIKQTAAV
Procedure, shortened: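 Potency was read as cAMP accumulation in a stable CHO-K1 line expressing human CRHR2, used in suspension right after thawing. Detection relied on energy transfer from antibody-bound cryptate to d2-cAMP.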

[4] = purified peptides, CHO-K1 cells stably expressing hCRHR1, cAMP HTRF, read-out: hCRHR1 EC50
[5] = purified peptides, CHO-K1 cells stably expressing hCRHR2, cAMP HTRF, read-out: hCRHR2 EC50

Compound	EC50 [1, 4] [nM]	% FI compared to vehicle, 24 h post-dosing ([2]; 30 nmol/kg)	% FI compared to vehicle, 24 h post-dosing ([2]; 100 nmol/kg)	% FI compared to vehicle, 24 h post-dosing ([2]; 300 nmol/kg)	Selectivity ratio (hCRHR1/ hCRHR2) ([3]; hCRHR1-EC50/hCRHR2-EC50)	EC50 [3, 5] [nM]	EC50 ([1]; Table 4, library peptides having X^38 = Nle, read-out: hCRHR1 pEC50 (converted)) [nM]	EC50 ([1]; Table 5, purified peptides, read-out: hCRHR1 EC50) [nM]	EC50 ([1]; stable cell system, Table 10, read-out: Stable EC50 (nM) hCRHR 1) [nM]	EC50 ([3]; Table 4, library peptides having X^38 = Nle, read-out: hCRHR2 pEC50 (converted)) [nM]	Selectivity ratio (hCRHR1/ hCRHR2) ([3]; Table 5)	EC50 ([3]; Table 5, purified peptides, read-out: hCRHR2 EC50) [nM]
CC[C@H](C)[C@H](N)C(=O)N[C@H](C(=O)N[C@@H](CC(C)C)C(=O)N[C@@H](CO)C(=O)N[C@@H](CC(C)C)C(=O)N[C@@H](CC(=O)O)C(=O)N[C@H](C(=O)N1CCC[C@H]1C(=O)N[C@H](C(=O)NCC(=O)N[C@@H](CC(C)C)C(=O)N[C@@H](CC(C)C)C(=O)N[C@@H](CCC(N)=O)C(=O)N[C@H](C(=O)N[C@@H](CC(C)C)C(=O)N[C@@H](CC(C)C)C(=O)N[C@@H](CCC(=O)O)C(=O)N[C@@H](CCC(N)=O)C(=O)N[C@@H](C)C(=O)N[C@@H](CCCNC(=N)N)C(=O)N[C@@H](C)C(=O)N[C@@H](CCCNC(=N)N)C(=O)N[C@@H](C)C(=O)N[C@@H](C)C(=O)N[C@@H](CCCNC(=N)N)C(=O)N[C@@H](CCC(=O)O)C(=O)N[C@@H](CCC(N)=O)C(=O)N[C@@H](C)C(=O)N[C@@H](CCCCNC(=O)COCCOCCNC(=O)COCCOCCNC(=O)CC[C@H](NC(=O)CC[C@H](NC(=O)CCCCCCCCCCCCCCCCCCC(=O)O)C(=O)O)C(=O)O)C(=O)N[C@@H](CCC(=O)O)C(=O)N[C@@H](CC(N)=O)C(=O)N[C@@H](C)C(=O)N[C@@H](CCC(=O)O)C(=O)N[C@H](C(=O)N[C@@H](CC(C)C)C(=O)N[C@@H](C)C(=O)N[C@@H](CCC(=O)O)C(=O)N[C@H](C(N)=O)C(C)C)[C@@H](C)CC)[C@@H](C)CC)[C@@H](C)CC)C(C)C)C(C)C [SEQ ID NO: 17] (H-IVLSLDVPIGLLQILLEQARARAAREQAK([AEEA-AEEA-γGlu-γGlu-C20 diacid])ENAEILAEV-NH2)	> 5000	78.97* %	48.64*** %	19.52*** %	>2381	2.1	–	–	–	–	–	–
CC[C@H](C)[C@H](N)C(=O)N[C@H](C(=O)N[C@@H](CC(C)C)C(=O)N[C@@H](CO)C(=O)N[C@@H](CC(C)C)C(=O)N[C@@H](CC(=O)O)C(=O)N[C@H](C(=O)N1CCC[C@H]1C(=O)N[C@H](C(=O)NCC(=O)N[C@@H](CC(C)C)C(=O)N[C@@H](CC(C)C)C(=O)N[C@@H](CCC(N)=O)C(=O)N[C@H](C(=O)N[C@@H](CC(C)C)C(=O)N[C@@H](CC(C)C)C(=O)N[C@@H](CCC(=O)O)C(=O)N[C@@H](CCC(N)=O)C(=O)N[C@@H](C)C(=O)N[C@@H](CCCNC(=N)N)C(=O)N[C@@H](C)C(=O)N[C@@H](CCCNC(=N)N)C(=O)N[C@@H](C)C(=O)N[C@@H](C)C(=O)N[C@@H](CCCNC(=N)N)C(=O)N[C@@H](CCC(=O)O)C(=O)N[C@@H](CCC(N)=O)C(=O)N[C@@H](C)C(=O)N[C@@H](CCCCNC(=O)COCCOCCNC(=O)COCCOCCNC(=O)CC[C@H](NC(=O)CC[C@H](NC(=O)CCCCCCCCCCCCCCCCCCC(=O)O)C(=O)O)C(=O)O)C(=O)NC(C)(C)C(=O)N[C@@H](CC(N)=O)C(=O)N[C@@H](C)C(=O)N[C@@H](CCC(=O)O)C(=O)N[C@H](C(=O)N[C@@H](CC(C)C)C(=O)N[C@@H](C)C(=O)N[C@@H](CCC(=O)O)C(=O)N[C@H](C(N)=O)C(C)C)[C@@H](C)CC)[C@@H](C)CC)[C@@H](C)CC)C(C)C)C(C)C [SEQ ID NO: 19] (H-IVLSLDVPIGLLQILLEQARARAAREQAK([AEEA-AEEA-γGlu-γGlu-C20 diacid])[Aib]NAEILAEV-NH2)	> 5000	56.47*** %	29.68*** %	21.66*** %	>3125	1.6	–	–	–	–	–	–
CC[C@H](C)[C@H](NC)C(=O)N[C@H](C(=O)N[C@@H](CC(C)C)C(=O)N[C@@H](CO)C(=O)N[C@@H](CC(C)C)C(=O)N[C@@H](CC(=O)O)C(=O)N[C@H](C(=O)N1CCC[C@H]1C(=O)N[C@H](C(=O)NCC(=O)N[C@@H](CC(C)C)C(=O)N[C@@H](CC(C)C)C(=O)N[C@@H](CCC(N)=O)C(=O)N[C@H](C(=O)N[C@@H](CC(C)C)C(=O)N[C@@H](CC(C)C)C(=O)N[C@@H](CCC(=O)O)C(=O)N[C@@H](CCC(N)=O)C(=O)N[C@@H](C)C(=O)N[C@@H](CCCNC(=N)N)C(=O)N[C@@H](C)C(=O)N[C@@H](CCCNC(=N)N)C(=O)N[C@@H](C)C(=O)N[C@@H](C)C(=O)N[C@@H](CCCNC(=N)N)C(=O)N[C@@H](CCC(=O)O)C(=O)N[C@@H](CCC(N)=O)C(=O)N[C@@H](C)C(=O)N[C@@H](CCCCNC(=O)COCCOCCNC(=O)COCCOCCNC(=O)CC[C@H](NC(=O)CC[C@H](NC(=O)CCCCCCCCCCCCCCCCCCC(=O)O)C(=O)O)C(=O)O)C(=O)N[C@H](C(=O)N[C@@H](CC(N)=O)C(=O)N[C@@H](C)C(=O)N[C@@H](CCC(=O)O)C(=O)N[C@H](C(=O)N[C@@H](CC(C)C)C(=O)N[C@@H](C)C(=O)N[C@@H](CCC(=O)O)C(=O)N[C@H](C(N)=O)C(C)C)[C@@H](C)CC)[C@@H](C)O)[C@@H](C)CC)[C@@H](C)CC)C(C)C)C(C)C [SEQ ID NO: 5] (H-[NMeI]VLSLDVPIGLLQILLEQARARAAREQAK([AEEA-AEEA-γGlu-γGlu-C20 diacid])TNAEILAEV-NH2)	> 5000	45.67*** %	18.68*** %	15.93*** %	>4167	1.2	–	–	–	–	–	–
CCCC[C@H](NC(=O)[C@@H](NC(=O)[C@H](CCC(=O)O)NC(=O)C(C)(C)NC(=O)[C@H](CC(N)=O)NC(=O)[C@@H](NC(=O)[C@H](CCCCNC(=O)COCCOCCNC(=O)COCCOCCNC(=O)CC[C@H](NC(=O)CC[C@H](NC(=O)CCCCCCCCCCCCCCCCCCC(=O)O)C(=O)O)C(=O)O)NC(=O)[C@H](C)NC(=O)[C@H](CCC(N)=O)NC(=O)[C@H](CCC(=O)O)NC(=O)[C@H](CCCNC(=N)N)NC(=O)[C@H](C)NC(=O)[C@H](C)NC(=O)[C@H](CCCNC(=N)N)NC(=O)[C@H](C)NC(=O)[C@H](CCCNC(=N)N)NC(=O)[C@H](C)NC(=O)[C@H](CCC(N)=O)NC(=O)[C@H](CO)NC(=O)[C@H](CC(C)C)NC(=O)[C@H](CC(C)C)NC(=O)[C@@H](NC(=O)[C@H](CCC(N)=O)NC(=O)[C@H](CC(C)C)NC(=O)[C@H](CC(C)C)NC(=O)CNC(=O)[C@@H](NC(=O)[C@@H]1CCCN1C(=O)[C@@H](NC(=O)[C@H](CC(=O)O)NC(=O)[C@H](CC(C)C)NC(=O)[C@H](CO)NC(=O)[C@H](CC(C)C)NC(=O)[C@@H](NC(=O)[C@@H](NC)[C@@H](C)CC)C(C)C)C(C)C)[C@@H](C)CC)[C@@H](C)CC)[C@@H](C)O)[C@@H](C)CC)C(=O)N[C@@H](C)C(=O)N[C@@H](CCC(=O)O)C(=O)N[C@H](C(N)=O)C(C)C [SEQ ID NO: 215] (H-[NMeI]VLSLDVPIGLLQILLSQARARAAREQAK([AEEA-AEEA-γGlu-γGlu-C20 diacid])TN[Aib]EI[Nle]AEV-NH2)	–	38.67*** %	20.26*** %	10.31*** %	–	–	3160	> 5000	> 5000	0.0251	>5747	0.87
